According to ChEMBL document CHEMBL1149453, “Thyroid receptor ligands. Part 4: 4'-amido bioisosteric ligands selective for the thyroid hormone receptor beta” (Bioorg Med Chem Lett, 2006):
Blank lines part the entries; values can stand above or below the molecule they belong to.

Tests used:
[1] = target: T1, Thyroid hormone receptor beta (Homo sapiens, UniProt P10828); test: Binding affinity to human thyroid hormone receptor beta 1
T1 sequence (P10828 whole entry): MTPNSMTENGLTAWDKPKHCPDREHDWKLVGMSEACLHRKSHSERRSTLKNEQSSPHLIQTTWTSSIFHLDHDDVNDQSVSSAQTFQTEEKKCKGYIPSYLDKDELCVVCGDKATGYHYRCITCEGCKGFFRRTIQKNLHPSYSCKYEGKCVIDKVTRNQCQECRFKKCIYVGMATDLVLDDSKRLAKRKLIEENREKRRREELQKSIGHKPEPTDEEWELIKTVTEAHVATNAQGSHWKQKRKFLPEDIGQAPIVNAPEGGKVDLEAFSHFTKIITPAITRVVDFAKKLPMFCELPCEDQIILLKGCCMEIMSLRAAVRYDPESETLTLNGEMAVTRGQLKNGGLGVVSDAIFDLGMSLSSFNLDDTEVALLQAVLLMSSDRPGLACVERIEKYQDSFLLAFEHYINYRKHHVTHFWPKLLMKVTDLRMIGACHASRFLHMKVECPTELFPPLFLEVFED

[2] = target: Thyroid hormone receptor (Homo sapiens) (UniProt P10827+P10828); test: Selectivity for human thyroid hormone receptor beta 1 over thyroid hormone receptor alpha 1; assay type: protein-complex assay
[3] = target: T2, Thyroid hormone receptor alpha (Homo sapiens, UniProt P10827); test: Binding affinity to human thyroid hormone receptor alpha 1
T2 sequence (P10827 whole entry): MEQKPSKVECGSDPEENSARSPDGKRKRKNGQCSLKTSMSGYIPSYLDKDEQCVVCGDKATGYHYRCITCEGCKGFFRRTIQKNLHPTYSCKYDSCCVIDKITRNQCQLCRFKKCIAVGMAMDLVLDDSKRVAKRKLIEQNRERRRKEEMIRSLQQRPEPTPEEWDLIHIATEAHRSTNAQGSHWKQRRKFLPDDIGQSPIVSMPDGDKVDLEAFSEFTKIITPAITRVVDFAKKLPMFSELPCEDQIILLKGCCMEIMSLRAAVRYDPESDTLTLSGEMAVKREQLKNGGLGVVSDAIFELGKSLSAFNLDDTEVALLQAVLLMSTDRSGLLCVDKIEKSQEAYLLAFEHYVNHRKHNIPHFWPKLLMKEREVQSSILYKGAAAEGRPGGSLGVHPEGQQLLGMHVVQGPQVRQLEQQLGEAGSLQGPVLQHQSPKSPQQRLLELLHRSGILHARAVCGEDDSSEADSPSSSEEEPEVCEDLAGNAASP

Structure (SMILES): CCCC(CCC)C(=O)Nc1ccc(Oc2c(Cl)cc(CC(=O)O)cc2Cl)cc1Br
IC50 [1]: 45 nM | Ratio IC50 [2]: 16 | IC50 [3]: 1200 nM

Structure (SMILES): CCC(=O)Nc1ccc(Oc2c(Cl)cc(CC(=O)O)cc2Cl)cc1Br
IC50 [1]: 140 nM | Ratio IC50 [2]: 14 | IC50 [3]: 3300 nM

Structure (SMILES): CCCC(C)C(=O)Nc1ccc(Oc2c(Cl)cc(CC(=O)O)cc2Cl)cc1Br (stereo not drawn)
IC50 [1]: 47 nM | Ratio IC50 [2]: 16 | IC50 [3]: 1300 nM

Structure (SMILES): CC(C)C(=O)Nc1ccc(Oc2c(Cl)cc(CC(=O)O)cc2Cl)cc1Br
IC50 [1]: 18 nM | Ratio IC50 [2]: 21 | IC50 [3]: 630 nM

Now from value to molecule:

IC50 [1]: 16 nM | Ratio IC50 [2]: 22 | IC50 [3]: 610 nM
Structure (SMILES): CCC(CC)C(=O)Nc1ccc(Oc2c(Cl)cc(CC(=O)O)cc2Cl)cc1Br

IC50 [1]: 4.3 nM | Ratio IC50 [2]: 33 | IC50 [3]: 240 nM
Structure (SMILES): CCC(C)C(=O)Nc1ccc(Oc2c(Cl)cc(CC(=O)O)cc2Cl)cc1Br (stereo not drawn)
